Test results: patent US20050085553A1, “Remedies for mild recognition deflict” (priority 2001, published 2005)

Assays:
[1] = test system: Fisher344 rats (27-month old, male); experiment: water maze test, learning deficit in old rats; assay type: in vivo, rat; conditions: 0.3 or 1.0 mg/kg orally once a day for 14 days
Description: An Ameliorative Effect of the Agent on Learning Deficit in Old Rats
Fisher344 rats (27-month old, male) were previously subjected to four trials of a water maze test using a pool with a diameter of 90 cm and a platform on the surface of water in the pool. The rats with remarkable disability to swim were excluded and the rest were divided into several groups. The compound A (0.3 or 1.0 mg/kg) was orally administered to the rats once a day for 14 days. On the 10th day, the rats were subjected to four trials of a water maze test using a platform on the surface of water in a pool and confirmed again that they had no difficulty in swimming ability. Starting from the next day, the rats were subjected four times a day for 3 days to a water maze test using a pool with a diameter of 120 cm and a platform submerged below the surface of water in the pool. In this test, the time required for the rats to arrive at the platform was measured. Two trials were expressed as one block. During the behavioral pharmacological test period, the drug was administered after the test.

[2] = test system: insoluble Aβ40; experiment: quantity of insoluble Aβ40 in cerebral cortex of transgenic mice with Swedish APP mutation (ELISA); assay type: in vivo, mouse; conditions: feed containing 56 ppm (about 7 mg/kg/day) for six months, 13-14 month old mice
Description: (§1) An Effect on Increase in Insoluble Aβ40/42 and Amyloid Plaque Formation in the Brains of Transgenic Mice with Swedish APP Mutation
(§2) Transgenic mice with Swedish amyloid precursor protein (APP) mutation (7- to 8-month old) were given solid feed containing the compound A (56 ppm) (equivalent to a dosage of about 7 mg/kg/day) or control feed for six months. After six months from the administration, one cerebral hemisphere was used for brain histological examination and the other hemisphere was used for determining the quantity of Aβ40/42. Cerebral cortex was used for measuring the quantity of Aβ. The accumulation type of insoluble Aβ40/42 protein were extracted by homogenization of the cerebral cortex in 25 times amount of Tris buffer (containing a protease inhibitor) followed by centrifugation to remove the supernatant. Then, 19 times amount of 70% formic acid was added to the insoluble precipitation and homogenized to solubilize it. After centrifugation, the supernatant was diluted to 1/20 with 1M Tris solution for neutralization and the diluted supernatant was used for determining the quantity of Aβ40/42 contained therein. Using enzyme-linked immunosorbent assay (ELISA), the quantity of accumulation-type Aβ40/42 was measured.

[3] = test system: insoluble Aβ42; experiment: quantity of insoluble Aβ42 in cerebral cortex of transgenic mice with Swedish APP mutation (ELISA); assay type: in vivo, mouse; conditions: feed containing 56 ppm (about 7 mg/kg/day) for six months, 13-14 month old mice
Description: as §1, §2

[4] = test system: amyloid plaques; experiment: number and area of amyloid plaques, brain sections immunostained with BAN50; assay type: in vivo, mouse; conditions: feed containing 56 ppm (about 7 mg/kg/day) for six months; sections containing dorsal hippocampus
Description: as §1
as §2, with “measured. […]” for “measured.”

[5] = test system: transgenic mice with Swedish APP mutation; experiment: general condition of the mice during the drug administration period; assay type: in vivo, mouse; conditions: feed containing 56 ppm (about 7 mg/kg/day) for six months
Description: as §2

Question: CN(C)CC[C@@H]1CCc2cc(OCc3ccc(-c4ccccc4)cc3)ccc2C1.Cl.O [compound A, (R)-(+)-6-(4-biphenylyl)methoxy-2-[2-(N,N-dimethylamino)ethyl]tetralin Hydrochloride Monohydrate] was tested. Which “swimming time for escape” value ([1]; final training block, compared between the groups) did it give?
Answer: significantly shortened

Question: And the “time required to arrive at the platform” value ([1]; water maze, large pool (120 cm), submerged platform, vs old control group)?
Answer: significantly improved

Question: What about the “reduction of quantity of insoluble Aβ40 in contrast to the vehicle group” value [2] of the same compound?
Answer: about 30%

Question: What about the “reduction of quantity of insoluble Aβ42 in contrast to the vehicle group” value [3] of the same compound?
Answer: about 30%

Question: What about the “area of amyloid plaques, relative to the vehicle group” value [4] of the same compound?
Answer: ~35 % of those in the vehicle group

Question: What about the “number of amyloid plaques, relative to the vehicle group” value [4] of the same compound?
Answer: about 40 % of those in the vehicle group

Question: And the “change in the general condition of the mice including weight loss” value [5]?
Answer: no change
